Data on six molecules can be found in ChEMBL document CHEMBL1122661, “Vinylogous amino acid esters: a new class of inactivators for thiol proteases” (J Med Chem, 1984).

Calls of active or inactive are those of the source. The calls are words filed in the database; no cut-off is given here. Where a SMILES comes first, the peptide text is derived from it.

Data set [1] deals with T1, Papain (Carica papaya) (UniProt P00784).
T1 sequence (whole entry): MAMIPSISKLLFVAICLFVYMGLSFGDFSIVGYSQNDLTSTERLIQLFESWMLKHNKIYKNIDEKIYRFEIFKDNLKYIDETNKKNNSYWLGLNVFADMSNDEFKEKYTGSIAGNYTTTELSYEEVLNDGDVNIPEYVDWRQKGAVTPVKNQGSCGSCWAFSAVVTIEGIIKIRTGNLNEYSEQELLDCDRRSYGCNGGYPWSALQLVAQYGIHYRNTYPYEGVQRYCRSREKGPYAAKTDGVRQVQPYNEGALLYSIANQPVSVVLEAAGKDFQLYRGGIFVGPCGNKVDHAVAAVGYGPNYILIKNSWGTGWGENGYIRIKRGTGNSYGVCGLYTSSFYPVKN
The experiment in a line: Inhibitory activity against papain; No detectab inactivation.

In data set [2] the target is T2, Papain (Carica papaya, UniProt P00784).
T2 sequence (P00784 whole entry): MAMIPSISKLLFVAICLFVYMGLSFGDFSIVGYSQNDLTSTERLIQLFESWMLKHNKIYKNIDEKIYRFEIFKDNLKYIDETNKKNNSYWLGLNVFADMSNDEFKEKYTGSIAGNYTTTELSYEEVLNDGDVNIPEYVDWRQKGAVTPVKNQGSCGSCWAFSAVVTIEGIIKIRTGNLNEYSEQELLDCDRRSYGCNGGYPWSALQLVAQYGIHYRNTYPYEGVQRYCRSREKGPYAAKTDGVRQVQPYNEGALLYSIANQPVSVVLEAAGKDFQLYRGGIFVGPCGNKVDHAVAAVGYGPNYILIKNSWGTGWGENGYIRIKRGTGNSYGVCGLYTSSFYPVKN
As to the kind of experiment: Inhibitory activity against papain; Weak competitive inhibitor.

Data set [3] is described as follows: Inhibition of hydrolysis of Z-Gly-NP by administration of the 1 uM compound; Markedly inhibited.
In data set [4] the target is T1, Papain (Carica papaya). As to the kind of experiment: Pseudo first order rate constant against papain.
Data set [5] deals with T2, Papain. As to the kind of experiment: Inhibitory activity against papain.
A short description of data set [6]: Inhibition of hydrolysis of Z-Gly-NPby administration of the compound.
Substrate in data set [7]: O=C(O)CNC(=O)OCc1ccccc1
As to the kind of experiment: Papain-catalyzed hydrolysis was expressed as Km.

In the case of `COC(=O)/C=C/C(Cc1ccccc1)NC(C)=O` (stereo not drawn), the inhibition entry in data set [1] is “inactive”. As a reminder, the Ki is a measure of affinity in units of concentration, obtained from inhibition or displacement. A low value points to higher affinity. Molecule `COC(=O)CCCNC(=O)C(Cc1ccccc1)NC(C)=O` (stereo not drawn) gave a Ki in data set [2] above 5 mM. With `COC(=O)/C=C/CNC(=O)C(Cc1ccccc1)NC(C)=O` (stereo not drawn), the inhibition entry in data set [3] is reported as “Markedly inhibited”. The molecule also yielded a K2 in data set [4] of 0.00182 s⁻¹. The molecule further came in with a Ki in data set [5] of 0.026 mM. In data set [6], `CC(=O)N[C@@H](Cc1ccccc1)C(=O)NCC(N)=O` (Ac-Phe-Gly-NH2) displayed a Ki of 4.7 mM. `C=CCNC(=O)C(Cc1ccccc1)NC(C)=O` (stereo not drawn): the inhibition constant (Ki) in data set [2] is above 5 mM.

B1: Papain (Carica papaya), P00784 (protein)
chain: MAMIPSISKLLFVAICLFVYMGLSFGDFSIVGYSQNDLTSTERLIQLFESWMLKHNKIYKNIDEKIYRFEIFKDNLKYIDETNKKNNSYWLGLNVFADMSNDEFKEKYTGSIAGNYTTTELSYEEVLNDGDVNIPEYVDWRQKGAVTPVKNQGSCGSCWAFSAVVTIEGIIKIRTGNLNEYSEQELLDCDRRSYGCNGGYPWSALQLVAQYGIHYRNTYPYEGVQRYCRSREKGPYAAKTDGVRQVQPYNEGALLYSIANQPVSVVLEAAGKDFQLYRGGIFVGPCGNKVDHAVAAVGYGPNYILIKNSWGTGWGENGYIRIKRGTGNSYGVCGLYTSSFYPVKN
The Km is the concentration of substrate that gives half-maximal velocity. Take B1: the Km in data set [7] is 10.3 µM.
